Measured values: patent publication US20240325369A1 (priority 2021, published 2024)

Procedure: Efficacy objectives were evaluated for subjects meeting the biomarker selection criteria described in the protocol. All subjects were monitored for safety during the study period, and up to 30 days after the last dose of study drug. Treatment continued until disease progression, unacceptable toxicity, death, or termination of the study by the sponsor.
Serum PSA, CTCs, survival status, SSEs were also collected. PROs included the BPI-SF, FACT-P, and EQ-5D-5L questionnaires. Safety assessments included recording of AEs, physical examinations, vital signs, ECGs, and ECOG performance status. Clinical laboratory testing included hematology, blood chemistry, and liver function parameters. Blood samples were also taken for pharmacokinetic assessments and biomarker analysis. Archival or recently collected tumor tissue samples were obtained from consenting subjects for biomarker identification.
All AEs reported on or after the date of first dose until 30 days (inclusive) after the last dose of study drug were considered treatment-emergent and were summarized. […] In addition. AE incidence rates were also summarized by severity and relationship to study drug. Treatment-related AEs were those judged by the investigator to beat least possibly related to the study drug. […] Deaths that occurred within 30 days after the last dose of study drug were defined as on-study deaths. No inferential statistical analyses were performed in analyzing the safety data.

[1] = safety population (289 subjects)
[2] = safety population (289 subjects), 300 mg once daily
[3] = safety population (289 subjects), data cutoff 26 Jan. 2021
[4] = safety population, 300 mg once daily

## NC(=O)c1cccc2cn(-c3ccc([C@@H]4CCCNC4)cc3)nc12 [Niraparib, 2-[4-[(3S)-piperidin-3-yl]phenyl]-2H-indazole-7-carboxamide]
289 enrolled subjects, clinical data cutoff 26 Jan. 2021
  Treatment discontinuation because of adverse events (reason for discontinuation): 14%
Heavily pre-treated prostate cancer population
  Safety profile: manageable
[1]
  Deaths due to treatment-emergent AEs, % of subjects: 5.5%
  Deaths due to treatment-emergent AEs, number of subjects: 16
  Deaths within 30 days of the last dose due to progressive disease, % of subjects: 6%
  Deaths within 30 days of the last dose due to progressive disease, number of subjects: 17
[2]
  AEs leading to treatment discontinuation, % of subjects: 22.8%
  Adverse event of clinical interest (all grades): anemia: 54.0%
  Adverse event of clinical interest (all grades): febrile neutropenia: 1.0%
  Adverse event of clinical interest (all grades): neutropenia: 19.4%
  Adverse event of clinical interest (all grades): thrombocytopenia: 34.3%
  Grade 3 or 4 AE: anemia: 32.9%
  Grade 3 or 4 AE: fatigue: 6.6%
  Grade 3 or 4 AE: nausea: 5.2%
  Grade 3 or 4 AE: neutropenia: 9.7%
  Grade 3 or 4 AE: thrombocytopenia: 16.3%
  Grade 3 or 4 AEs, % of subjects: 75.1%
  Grade 4 AE: thrombocytopenia, % of subjects: 8.0%
  Grade 4 AE: thrombocytopenia, number of subjects: 23
  Subjects reporting SAEs: 46.4%
  Subjects who experienced at least 1 AE: 99.7%
  Subjects who reported a related AE: 90%
[3]
  Deaths within 30 days of the last dose of study drug, % of subjects: 9%
  Deaths within 30 days of the last dose of study drug, number of subjects: 26
[4]
  Grade 3 or 4 clinical chemistry value: hyperkalemia: 2.5%
  Grade 3 or 4 clinical chemistry value: hyponatremia: 3.2%
  Grade 3 or 4 clinical chemistry value: increased GGT: 5.0%
  Grade 3 or 4 clinical chemistry value: increased alkaline phosphatase: 2.5%
  Grade 3 or 4 hematology value: anemia: 17.0%
  Grade 3 or 4 hematology value: decreased lymphocyte count: 18.4%
